Experimental data as given in patent US10058493B2, “Oral care compositions and methods of use” (COLGATE-PALMOLIVE COMPANY, priority 2016, dated 2018).
Entries after “also recorded” stand apart in the source; their conditions may differ.

Columns and labels:
Design in all cases: species or system human
[1] = Buffering effect on pH of saliva following acid challenge with cola beverage; conditions: cola titration; 0.0625% reagent; FIG. 2
Procedure: (§1) Aqueous solutions containing arginine and zinc salts were created to carry out the following Examples. Solution 1 was prepared by mixing L-arginine (0.375 g), zinc oxide (ZnO, 0.25 g), and zinc citrate trihydrate (0.125 g) in deionized water (24.25 mL). These values correspond to the following percentages by mass: 1.5% L-arginine, 1% ZnO, 0.5% zinc citrate trihydrate. Additional control solutions were prepared of each regent alone at equal concentrations. Each solution was diluted to 25 g total mass with deionized water.
Paraffin-stimulated whole saliva was collected from a healthy subject. Each saliva sample was mixed by an appropriate means. Immediately prior to analysis, the ex-vivo saliva samples were pretreated with aliquots of Solution 1 to give a range of active dilutions. A control sample containing untreated whole saliva was also prepared for comparison. The dilutions were prepared as in Table 2.
The samples as described in Table 2 were tested for buffering effect on the pH of saliva following acid challenge with a cola beverage. Initial pH values of the treated samples were obtained. A cola beverage (1 mL) was added to the saliva sample. The resultant was mixed for 30 seconds at room temperature at the conclusion of which the pH of the sample was recorded. This process was repeated step-wise up to a total of 40 mL of cola. […]

[2] = Buffering effect on pH of saliva following sucrose challenge (bacterial acid production); conditions: for effect on pH drop after sucrose challenge versus untreated control: Donors A-C, range of concentrations, 2, 4, 6 hours and overnight
Procedure: as §1
Paraffin-stimulated whole saliva was collected from three healthy subjects (Donors A-C). Each saliva sample was mixed by ordinary means in the art. Prior to analysis, the ex-vivo saliva samples were pretreated with aliquots of the simple solutions to give a range of active dilutions (i.e., total Zn^2+ concentration of about 0-3000 ppm) including an untreated control in order to test for buffering effect against sucrose challenge as a function of zinc concentration. An initial pH of the treated sample was obtained. A sucrose solution (5%, 1 mL) was added to each saliva sample. The resultant was mixed for and then incubated at 37° C. and the pH was monitored at 2 hours, 4 hours, 6 hours, and overnight. Zinc concentration in each sample was determined by ICP-AES.
Further experiments were conducted to ensure that zinc oxide/zinc citrate/arginine, not its constituent parts, was needed to achieve the buffering capacity improvement described. The solutions tested were prepared according to the specifications as laid out in Table 3 above.

[3] = Buffering effect on pH of saliva following acid challenge with dilute hydrochloric acid; conditions: 0.01 M HCl 6 mL; for acid buffering effect / pH of treated saliva after acid exposure: 20 min; for acid buffering effect: room temperature, Donors 1-3; for pH of treated saliva after acid exposure: all donors
Procedure: as §1
Paraffin-stimulated whole saliva was collected from three healthy subjects (Donors 1-3). Each saliva sample was mixed by ordinary means in the art. Immediately prior to analysis, the ex-vivo saliva samples were pretreated with aliquots of the simple solutions to give a range of active dilutions (i.e., total Zn^2+ concentration of about 0-1500 ppm) including an untreated control. The concentrations of actives (i.e., zinc oxide/zinc citrate/arginine, L-arginine, zinc oxide, zinc citrate) were varied between 0.0% to 50% across all samples, as shown in FIGS. 5-10.
An initial pH of the treated sample was obtained. Dilute hydrochloric acid (HCl, 0.01 M, 6 mL) was added to each saliva sample. The resultant was mixed for 20 minutes at room temperature. The pH of the sample was recorded at the conclusion of the reaction time. Zinc concentration in each sample was determined by ICP-AES.

[4] = Buffering effect on pH of saliva following acid challenge with orange juice; conditions: 0.0625% reagent in saliva (Table 3); FIG. 4
Procedure: as §1
Four solutions containing whole saliva and zinc oxide/zinc citrate/arginine at varying proportions were prepared in accordance with the methods laid out in Example 1 above. The solutions contained the same concentrations as Samples 1-4 as defined in Table 2. The samples were tested for buffering effect on the pH of saliva following acid challenge with orange juice. Initial pH values of the treated samples were obtained. Orange juice (0.1 mL) was added to the saliva sample. The resultant was mixed for 30 seconds at room temperature at the conclusion of which the pH of the sample was recorded. This process was repeated step-wise up to a total of 3.0 mL of orange juice. After this point, orange juice was added to the samples in an amount of 0.5 mL up to 5.0 mL. […]

In the case of N=C(N)NCCC[C@H](N)C(=O)O [arginine, L-arginine], the “shift of isoelectric point in comparison to the untreated sample” value [1] is reported as “acid shifted the isoelectric point in comparison to the untreated sample providing no acid neutralization benefit”, the “buffering effect of the 100 ppm arginine solution” value ([2]; donor C, FIG. 14) is reported as “modest buffering was observed” and the “buffering effect of the 100 ppm arginine solution” value ([2]; donors A or B, FIGS. 12-13) is reported as “not seen”. The “amount of solution able to match the buffering effect of 200 μL or less zinc oxide/zinc citrate/arginine” value ([3]; FIGS. 5-7) was over 500 µL.

For O.O.O.O=C([O-])CC(O)(CC(=O)[O-])C(=O)[O-].O=C([O-])CC(O)(CC(=O)[O-])C(=O)[O-].[Zn+2].[Zn+2].[Zn+2] [zinc citrate, zinc citrate trihydrate], the “shift of isoelectric point in comparison to the untreated sample” value [1] was “acid shifted the isoelectric point in comparison to the untreated sample providing no acid neutralization benefit”, the “effect on pH drop after sucrose challenge versus untreated control” value [2] was “Buffering effects were observed over the untreated control of each of the donors” and the “ability to buffer the acidic orange juice compared with controls” value [4] was “no benefit in comparison the untreated control”. The acid buffering effect ([3]; FIGS. 5-7) was “little to no buffering effect at all” and the “pH of treated saliva after acid exposure” value [3] was “below 4.0”.

In the case of [O]=[Zn] [zinc oxide], the “effect on pH drop after sucrose challenge versus untreated control” value [2] is reported as “Buffering effects were clearly observed over the untreated control of each of the donors”, the acid buffering effect ([3]; FIGS. 5-7) is reported as “some pH stabilization; also recorded: not showing a dose response above 0.1% treatment” and the “pH of treated saliva after acid exposure” value [3] is reported as “lower in saliva treated with ZnO than zinc oxide/zinc citrate/arginine treated saliva”.
